{"source": "patent US8426342B2", "about": "“Method for weed control in lawn” (priority 2008, dated 2013)", "key": {"Cynodon dactylon": {"test_system": "Cynodon dactylon", "experiment": "Greenhouse selectivity testing ex. 6.1, turf grass plants in 1-leaf stage, % injury", "method": "Turf grass plants were grown in sandy loam soil in the greenhouse under good growing conditions up to the 1-leaf stage. In parallel tests, a formulation (water-dispersable powder) containing a mixture of the compounds no. […] The turf grass plants were further kept under good growing conditions. 7 days after application the selectivity was visually evaluated as percent (%) injury compared to untreated control plants."}, "Taraxacum officinalis": {"test_system": "Taraxacum officinalis", "experiment": "Greenhouse herbicidal effect in weed control ex. 6.2, 1- to 2-leaves stage", "type": "in vivo", "description": "(§1) That means, when applying the combinations according to the invention, herbicidal effects are observed on a harmful plant species which exceed the formal total of the effects of the herbicides present when these are applied by themselves. Alternatively, it is observed in some cases that a lower application rate is required for the herbicide combination in order to achieve the same effect on a harmful plant species in comparison with the individual products.\n(§2) When the data observed already exceed the formal total (=E^A) of the data in the experiments with individual applications, they likewise exceed the expected value according to Colby, which is calculated using the formula below and is likewise regarded as an indication of synergism (cf. S. R. Colby; in Weeds 15 (1967) pp. 20 to 22): E=A+B−(A·B/100)\n(§3) In this formula: • A=action of active compound (A) in % at an application rate of a g of AS/ha; • B=action of active compound (B) in % at an application rate of b g of AS/ha; • E=expected value of the action of the combination (A)+(B) in % at the combined application rate a+b g of AS/ha.\n(§4) The data observed in the experiments show, at suitably low dosages, an action of the combinations which exceeds the expected values according to Colby (=E^C)."}, "Capsella bursa pastoris": {"test_system": "Capsella bursa pastoris", "experiment": "Greenhouse herbicidal effect in weed control ex. 6.2, 2- to 3-leaves stage", "type": "in vivo", "description": "as §1, §2, §3, §4"}, "[1]": {"test_system": "monocotyledonous and dicotyledonous weed plants", "experiment": "Field trial ex. 7.1, weed control in pre-emergence application, 12 DAT (Tables 38, 39)", "type": "in vivo", "method": "as §2\nSeeds or rhizome pieces of monocotyledonous and dicotyledonous weed plants were placed in the field in sandy loam soil and covered with soil. […] 12 days after application (12 DAT), the herbicidal effect on the developed weed plants was visually evaluated as percent (%) herbicidal effect compared to untreated control plants."}, "weed plants": {"test_system": "weed plants", "experiment": "Greenhouse herbicidal effect in weed control ex. 6.2 (Tables 34 to 37)", "type": "in vivo", "details": "post-emergence; for Herbicidal effect (%) 7 DAT on Trifolium pratense: 3-leaves stage", "method": "as §2"}, "[2]": {"test_system": "monocotyledonous and dicotyledonous weed plants", "experiment": "Field trial ex. 7.2, weed control in post-emergence application (Table 40)", "type": "in vivo", "details": "2-leaves stage, 12 DAT", "method": "as §2, §3\n(§5) Seeds or rhizome pieces of monocotyledonous and dicotyledonous weed plants and specific warm season turf grasses were placed in the field in sandy loam soil, covered with soil and grown until the plants had reached the leaves stage indicated in the tables. […] The herbicidal effect was visually evaluated as percent (%) herbicidal effect compared to untreated control plants. The results are summarized in Table 40 below and show a synergistic increase in herbicidal effect of the mixtures of active ingredients and a good safety of the turf grass."}, "[3]": {"test_system": "specific warm season turf grasses", "experiment": "Field trial ex. 7.2, turf grass safety in post-emergence application (Table 40)", "type": "in vivo", "description": "as §5"}, "[4]": {"details": "Cynodon dactylon, in vivo, 7 days after application"}}, "note": "Marks after values point to notes of the source that are not given here."}
{"smiles": "COc1cc(OC)n2nc(S(=O)(=O)Nc3c(Cl)ccc(C)c3Cl)nc2n1", "note": "[Metosulam]", "values": [{"measurement": "Selectivity evaluation (% injury) 7 DAT on Cynodon dactylon", "setting": "Cynodon dactylon; [4]", "value": 0, "unit": "%"}, {"measurement": "Herbicidal effect (%) 7 DAT on Taraxacum officinalis", "setting": "Taraxacum officinalis; 10 g a.i./ha", "value": 10, "unit": "%"}]}
{"smiles": "CCOc1ccccc1OS(=O)(=O)NC(=O)Nc1nc(OC)cc(OC)n1", "note": "[Ethoxysulfuron]", "values": [{"measurement": "Selectivity evaluation (% injury) 7 DAT on Cynodon dactylon", "setting": "Cynodon dactylon; [4]", "value": 0, "unit": "%"}, {"measurement": "Herbicidal effect (%) 7 DAT on Capsella bursa pastoris", "setting": "Capsella bursa pastoris; 20 g a.i./ha", "value": 50, "unit": "%"}, {"measurement": "Herbicidal effect (%) 12 DAT on Brachiaria decumbens", "setting": "[1]; Table 38, field, 30 g a.i./ha", "value": 0, "unit": "%"}]}
{"smiles": "CCOC(=O)C(Cl)Cc1cc(-n2nc(C)n(C(F)F)c2=O)c(F)cc1Cl", "note": "(stereo not drawn) [Carfentrazone-ethyl]", "values": [{"measurement": "Herbicidal effect (%) 7 DAT on Trifolium pratense", "setting": "weed plants; 8 g a.i./ha", "value": 0, "unit": "%"}, {"measurement": "Herbicidal effect (%) 12 DAT on Brachiaria decumbens", "setting": "[1]; Table 39, field, 15 g a.i./ha", "value": 0, "unit": "%"}, {"measurement": "Herbicidal effect (%) on Commelina benghalensis", "setting": "[2]; 15 g a.i./ha", "value": 59, "unit": "%"}, {"measurement": "Herbicidal effect (%) on Paspalum notatum (warm season turf grass)", "setting": "[3]; field, post-emergence, 3-leaves stage, 15 g a.i./ha, 7 DAT", "value": 0, "unit": "%"}]}
{"smiles": "COC(=O)c1ccc(CNS(C)(=O)=O)cc1S(=O)(=O)NC(=O)Nc1nc(OC)cc(OC)n1", "note": "[Mesosulfuron-methyl, reference compound]", "values": [{"measurement": "Selectivity evaluation (% injury) 7 DAT on Cynodon dactylon", "setting": "Cynodon dactylon; 5 g a.i./ha, 7 DAT, greenhouse, 1-leaf stage", "value": 0, "unit": "%"}, {"measurement": "Herbicidal effect (%) 12 DAT on Brachiaria decumbens", "setting": "[1]; Table 38, field, 5 g a.i./ha", "value": 0, "unit": "%"}, {"measurement": "Herbicidal effect (%) on Commelina benghalensis", "setting": "[2]; 5 g a.i./ha", "value": 47, "unit": "%"}, {"measurement": "Herbicidal effect (%) on Paspalum notatum (warm season turf grass)", "setting": "[3]; in vivo", "value": 0, "unit": "%"}]}
{"smiles": "CCS(=O)(=O)c1cccnc1S(=O)(=O)NC(=O)Nc1nc(OC)cc(OC)n1", "note": "[Rimsulfuron, reference compound]", "values": [{"measurement": "Selectivity evaluation (% injury) 7 DAT on Cynodon dactylon", "setting": "Cynodon dactylon; [4]", "value": 10, "unit": "%"}, {"measurement": "Herbicidal effect (%) 7 DAT on Trifolium pratense", "setting": "weed plants; 5 g a.i./ha", "value": 40, "unit": "%"}]}
{"smiles": "O=C(O)CNCP(=O)(O)O", "note": "[Glyphosate]", "values": [{"measurement": "Herbicidal effect (%) 7 DAT on Taraxacum officinalis", "setting": "Taraxacum officinalis; 200 g a.i./ha", "value": 40, "unit": "%"}]}
{"smiles": "Nc1c(Cl)c(F)nc(OCC(=O)O)c1Cl", "note": "[Fluroxypyr]", "values": [{"measurement": "Selectivity evaluation (% injury) 7 DAT on Cynodon dactylon", "setting": "Cynodon dactylon; [4]", "value": 0, "unit": "%"}, {"measurement": "Herbicidal effect (%) 7 DAT on Capsella bursa pastoris", "setting": "Capsella bursa pastoris; 100 g a.i./ha", "value": 60, "unit": "%"}]}
{"smiles": "Nc1c(Cl)c(Cl)nc(C(=O)O)c1Cl", "note": "[Picloram, reference compound]", "values": [{"measurement": "Selectivity evaluation (% injury) 7 DAT on Cynodon dactylon", "setting": "Cynodon dactylon; 300 g a.i./ha, 7 DAT, greenhouse, 1-leaf stage", "value": 0, "unit": "%"}, {"measurement": "Herbicidal effect (%) 7 DAT on Echinocloa crus-galli", "setting": "weed plants; 3- to 4-leaves stage, 300 g a.i./ha", "value": 30, "unit": "%"}]}
{"smiles": "Cc1cc(Cl)ccc1O[C@@H](C)C(=O)O", "note": "[Mecoprop-P]", "values": [{"measurement": "Herbicidal effect (%) 7 DAT on Taraxacum officinalis", "setting": "Taraxacum officinalis; 500 g a.i./ha", "value": 20, "unit": "%"}]}
{"smiles": "N#Cc1cc(Br)c(O)c(Br)c1", "note": "[Bromoxynil]", "values": [{"measurement": "Herbicidal effect (%) 7 DAT on Capsella bursa pastoris", "setting": "Capsella bursa pastoris; 100 g a.i./ha", "value": 30, "unit": "%"}]}
{"smiles": "Cc1cc(Cl)ccc1OCC(=O)O", "note": "[MCPA, reference compound]", "values": [{"measurement": "Selectivity evaluation (% injury) 7 DAT on Cynodon dactylon", "setting": "Cynodon dactylon; 500 g a.i./ha, 7 DAT, greenhouse, 1-leaf stage", "value": 0, "unit": "%"}, {"measurement": "Herbicidal effect (%) 7 DAT on Trifolium pratense", "setting": "weed plants; 500 g a.i./ha", "value": 30, "unit": "%"}]}
{"smiles": "CCOC(=O)[C@@H](C)Oc1ccc(Oc2nc3ccc(Cl)cc3o2)cc1", "note": "[Fenoxaprop-P-ethyl]", "values": [{"measurement": "Herbicidal effect (%) 7 DAT on Trifolium pratense", "setting": "weed plants; 45 g a.i./ha", "value": 0, "unit": "%"}, {"measurement": "Herbicidal effect (%) 12 DAT on Brachiaria decumbens", "setting": "[1]; Table 39, field, 60 g a.i./ha", "value": 0, "unit": "%"}]}
{"smiles": "COC(=O)c1ccccc1S(=O)(=O)NC(=O)Nc1nc(C)nc(OC)n1", "note": "[Metsulfuron-methyl]", "values": [{"measurement": "Herbicidal effect (%) 7 DAT on Trifolium pratense", "setting": "weed plants; 5 g a.i./ha", "value": 30, "unit": "%"}]}
{"smiles": "O=C(O)CNCP(=O)([O-])O.[K+]", "note": "[Glyphosate-potassium salt (K salt)]", "values": [{"measurement": "Herbicidal effect (%) 12 DAT on Brachiaria decumbens", "setting": "[1]; Table 39, field, 620 g a.i./ha", "value": 0, "unit": "%"}, {"measurement": "Herbicidal effect (%) 12 DAT on Brachiaria decumbens", "setting": "[1]; Table 39, field, 840 g a.i./ha", "value": 0, "unit": "%"}, {"measurement": "Herbicidal effect (%) on Commelina benghalensis", "setting": "[2]; 620 g a.i./ha", "value": 62, "unit": "%"}, {"measurement": "Herbicidal effect (%) on Commelina benghalensis", "setting": "[2]; 840 g a.i./ha", "value": 62, "unit": "%"}, {"measurement": "Herbicidal effect (%) on Paspalum notatum (warm season turf grass)", "setting": "[3]; field, post-emergence, 3-leaves stage, 620 g a.i./ha, 7 DAT, turf grass used is not glyphosate tolerant", "value": "23^5) %"}, {"measurement": "Herbicidal effect (%) on Paspalum notatum (warm season turf grass)", "setting": "[3]; field, post-emergence, 3-leaves stage, 840 g a.i./ha, 7 DAT, turf grass used is not glyphosate tolerant", "value": "40^5) %"}]}
